# In the supplement of paper PMC11208160:
# Experiment: recombinant UMI read abundance after kanamycin selection (control-corrected) (log10(CPM+1)); higher = more efficient recombination; extreme values may be limits of the assay; sequences stand for … in AGTGCAGAGAAAATCGGCCAGTTTTCTCTGCCTGCAGTCCGCATGCCGTGGGACCCCTTGGGTTCTAACCTGTTGCCTAGATTTATGCAGCGGACTGCCTTTCTCCCAAAGTGATAAACCGG…AGGTTGGTTTCACT; site = the 11-nt donor
# Procedure, shortened: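 Under IPTG (0.07 mM) plus kanamycin, or without selection, Escherichia coli carrying a UMI-tagged donor and donor-binding-loop pair library and a target plasmid for the IS621 bridge recombinase were plated in two replicates. Recombinant UMIs were PCR-amplified across the donor–target junction and sequenced. Counts were converted to CPM, averaged over replicates, scaled by control-derived factors and reported as log10(CPM+1).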
# 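Further: IS621 bridge recombinase in Escherichia coli cells against a fixed T5 target plasmid.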
row,Sequence,recombinant UMI read abundance (log10)
1,CGTGAGTCATGGACCGGTTTTCCCGGTAATCCGTATTTGCC (site CGAGAGTCTGG),1.79
2,CGTGAGTCATGGACCGGTTTTCCCGGTAATCCGTATTTGCC (site CGCGAGTCTGG),0
3,CGTGAGTCATGGACCGGTTTTCCCGGTAATCCGTATTTGCC (site CGGGAGTCTGG),0.694
4,CGTGAGTCATGGACCGGTTTTCCCGGTAATCCGTATTTGCC (site CGTGAGTCTGG),1.97
5,CGTGAGTCATGGACCGGTTTTCCCGGTAATCCGTATTTGCG (site CGTGAGTCTCG),2.58
6,CGTGCGGCATGGACCGGTTTTCCCGGTAATCCGTATTTGGA (site CGTGCGGCTTC),0.167
7,CGTGCGTCATGGACCGGTTTTCCCGGTAATCCGTATTTGTA (site CGTGCGTCTTA),2.34
8,CGTGGAACATGGACCGGTTTTCCCGGTAATCCGTATTTGGT (site CGTGGAACTAA),0.427
9,CGTGGAACATGGACCGGTTTTCCCGGTAATCCGTATTTGGT (site CGTGGAACTAC),1.33
10,CGTGGAACATGGACCGGTTTTCCCGGTAATCCGTATTTGGT (site CGTGGAACTAG),0
11,CGTGGAACATGGACCGGTTTTCCCGGTAATCCGTATTTGGT (site CGTGGAACTAT),1.26
12,CGTGGCACATGGACCGGTTTTCCCGGTAATCCGTATTTGTT (site CGTGGAACTAA),0.00865
13,CGTGGCACATGGACCGGTTTTCCCGGTAATCCGTATTTGTT (site CGTGGCACTAA),0.862
14,CGTGGCACATGGACCGGTTTTCCCGGTAATCCGTATTTGTT (site CGTGGGACTAA),0.00775
15,CGTGGCACATGGACCGGTTTTCCCGGTAATCCGTATTTGTT (site CGTGGTACTAA),0.0209
16,CGTGTAACATGGACCGGTTTTCCCGGTAATCCGTATTTGTT (site CGTGAAACTAA),0.00395
17,CGTGTAACATGGACCGGTTTTCCCGGTAATCCGTATTTGTT (site CGTGCAACTAA),0.015
18,CGTGTAACATGGACCGGTTTTCCCGGTAATCCGTATTTGTT (site CGTGGAACTAA),0.0109
19,CGTGTAACATGGACCGGTTTTCCCGGTAATCCGTATTTGTT (site CGTGTAACTAA),0.811
20,CGTTAAGCATGGACCGGTTTTCCCGGTAATCCGTATTTGGC (site CGTTAAGCTGC),1.73
21,CGTTACCCATGGACCGGTTTTCCCGGTAATCCGTATTTGCG (site CGTTACCCTCG),0.477
22,CGTTAGACATGGACCGGTTTTCCCGGTAATCCGTATTTGAT (site CGTTAGACTAT),1.58
23,CGTTAGACATGGACCGGTTTTCCCGGTAATCCGTATTTGAT (site CGTTAGACTCT),0.00897
24,CGTTAGACATGGACCGGTTTTCCCGGTAATCCGTATTTGAT (site CGTTAGACTGT),0
25,CGTTAGACATGGACCGGTTTTCCCGGTAATCCGTATTTGAT (site CGTTAGACTTT),0.0167

row,Sequence,recombinant UMI read abundance (log10)
1,CGTTATCCATGGACCGGTTTTCCCGGTAATCCGTATTTGCG (site CGTTATCCTCG),0.766
2,CGTTCCACATGGACCGGTTTTCCCGGTAATCCGTATTTGTG (site CGTTCCACTCA),0.0103
3,CGTTGACCATGGACCGGTTTTCCCGGTAATCCGTATTTGGA (site CGTTGACCTTC),0.0127
4,CGTTGATCATGGACCGGTTTTCCCGGTAATCCGTATTTGCT (site CGATCATCTAG),0.00695
5,CGTTGATCATGGACCGGTTTTCCCGGTAATCCGTATTTGCT (site CGTTGATCTAG),2.78
6,CGTTGGTCATGGACCGGTTTTCCCGGTAATCCGTATTTGCA (site CGTTGGTCTTG),1.29
7,CGTTTCGCATGGACCGGTTTTCCCGGTAATCCGTATTTGGA (site CGTTTCGCTTC),0.0198
8,CGTTTGGCATGGACCGGTTTTCCCGGTAATCCGTATTTGGT (site CGTTTGGCTAA),0.0435
9,CGTTTGGCATGGACCGGTTTTCCCGGTAATCCGTATTTGGT (site CGTTTGGCTAC),1.31
10,CGTTTGGCATGGACCGGTTTTCCCGGTAATCCGTATTTGGT (site CGTTTGGCTAG),0.00668
11,CGTTTGGCATGGACCGGTTTTCCCGGTAATCCGTATTTGGT (site CGTTTGGCTAT),0.959
12,CGTTTGGCATGGACCGGTTTTCCCGGTAATCCGTATTTGTT (site CGTTTGGCTAA),0.693
13,CGTTTGGCATGGACCGGTTTTCCCGGTAATCCGTATTTGTT (site CGTTTGGCTAC),0.0131
14,CGTTTGGCATGGACCGGTTTTCCCGGTAATCCGTATTTGTT (site CGTTTGGCTAG),0.989
15,CGTTTGGCATGGACCGGTTTTCCCGGTAATCCGTATTTGTT (site CGTTTGGCTAT),0.033
16,CGTTTGTCATGGACCGGTTTTCCCGGTAATCCGTATTTGCT (site CGTTTGACTAG),0
17,CGTTTGTCATGGACCGGTTTTCCCGGTAATCCGTATTTGCT (site CGTTTGCCTAG),0
18,CGTTTGTCATGGACCGGTTTTCCCGGTAATCCGTATTTGCT (site CGTTTGGCTAG),0
19,CGTTTGTCATGGACCGGTTTTCCCGGTAATCCGTATTTGCT (site CGTTTGTCTAG),1.92
20,CGTTTTGCATGGACCGGTTTTCCCGGTAATCCGTATTTGCT (site CGTTTAGCTAG),0
21,CGTTTTGCATGGACCGGTTTTCCCGGTAATCCGTATTTGCT (site CGTTTCGCTAG),0
22,CGTTTTGCATGGACCGGTTTTCCCGGTAATCCGTATTTGCT (site CGTTTGGCTAG),0
23,CGTTTTGCATGGACCGGTTTTCCCGGTAATCCGTATTTGCT (site CGTTTTGCTAG),0.543
24,CTAAAAGCATGGACCGGTTTTCCCGGTAATCCGTATTTGGC (site CTAAAAGCTGC),0
25,CTAAAATCATGGACCGGTTTTCCCGGTAATCCGTATTTGAC (site CTAAAATCTGT),2.03

row,Sequence,recombinant UMI read abundance (log10)
1,CTAAAATCATGGACCGGTTTTCCCGGTAATCCGTATTTGAC (site CTAGTATCTGT),0.0803
2,CTAAGAACATGGACCGGTTTTCCCGGTAATCCGTATTTGAA (site CTAAGAACTTT),2.44
3,CTAAGGCCATGGACCGGTTTTCCCGGTAATCCGTATTTGAC (site ATAAGGCCTGT),0
4,CTAAGGCCATGGACCGGTTTTCCCGGTAATCCGTATTTGAC (site CTAAGGCCTGT),0.577
5,CTAAGGCCATGGACCGGTTTTCCCGGTAATCCGTATTTGAC (site GTAAGGCCTGT),0
6,CTAAGGCCATGGACCGGTTTTCCCGGTAATCCGTATTTGAC (site TTAAGGCCTGT),0
7,CTAATAACATGGACCGGTTTTCCCGGTAATCCGTATTTGGA (site CTAATAACTTC),2.05
8,CTAATAACATGGACCGGTTTTCCCGGTAATCCGTATTTGGA (site CTACTAACTTC),0.337
9,CTAATAACATGGACCGGTTTTCCCGGTAATCCGTATTTGGA (site CTAGTAACTTC),0.0598
10,CTAATAACATGGACCGGTTTTCCCGGTAATCCGTATTTGGA (site CTATTAACTTC),1.14
11,CTAATTACATGGACCGGTTTTCCCGGTAATCCGTATTTGTG (site CTAATTACTCA),0.859
12,CTACCGTCATGGACCGGTTTTCCCGGTAATCCGTATTTGGG (site CTACCGTCTCC),0.901
13,CTACCTACATGGACCGGTTTTCCCGGTAATCCGTATTTGAG (site CTACCTACTCT),1.04
14,CTACCTACATGGACCGGTTTTCCCGGTAATCCGTATTTGAG (site CTCCCTACTCT),0.0123
15,CTACCTACATGGACCGGTTTTCCCGGTAATCCGTATTTGAG (site CTGCCTACTCT),0.00249
16,CTACCTACATGGACCGGTTTTCCCGGTAATCCGTATTTGAG (site CTTCCTACTCT),0.0155
17,CTACTAACATGGACCGGTTTTCCCGGTAATCCGTATTTGAA (site CTACTAACTTA),0.909
18,CTACTAACATGGACCGGTTTTCCCGGTAATCCGTATTTGAA (site CTACTAACTTC),0.291
19,CTACTAACATGGACCGGTTTTCCCGGTAATCCGTATTTGAA (site CTACTAACTTG),0
20,CTACTAACATGGACCGGTTTTCCCGGTAATCCGTATTTGAA (site CTACTAACTTT),2.27
21,CTACTAACATGGACCGGTTTTCCCGGTAATCCGTATTTGGA (site ATACTAACTTC),0.387
22,CTACTAACATGGACCGGTTTTCCCGGTAATCCGTATTTGGA (site CAACTAACTTC),0.0111
23,CTACTAACATGGACCGGTTTTCCCGGTAATCCGTATTTGGA (site CCACTAACTTC),0.567
24,CTACTAACATGGACCGGTTTTCCCGGTAATCCGTATTTGGA (site CGACTAACTTC),0.339
25,CTACTAACATGGACCGGTTTTCCCGGTAATCCGTATTTGGA (site CTAATAACTTC),1.38
